From patent publication US20140179607A9 (IRONWOOD PHARMACEUTICALS, INC, priority 2009, published 2014)
Positions of bridges follow the written chain, without caps; N, C: chain ends. Non-standard residues stand in square brackets, D forms with d. Residues, ends and D or L forms follow the SMILES beside them. pS = N[C@@H](COP(=O)(O)O)C(=O)O

Tests used:
[1] = In vitro metabolism in mouse jejunum loop fluid; format: in vitro ADME; conditions: for metabolism in mouse jejunum fluid (words) / remaining at 2 h, 100 μg/mL: 37° C.; for metabolism in mouse jejunum fluid (words): up to 120 minutes; for remaining at 2 h, 100 μg/mL: mouse jejunum loop fluid, pH 8, mouse jejunal loop fluid, after 120 minutes, read-out: percent remaining
Description: The purpose of this study was to determine the stability of phosphorylated peptides in mouse jejunal loop fluid. […] The isotopically labeled peptide 2 was synthesized with ^13C, ^15N-labeled alanine and leucine (i.e., with a sequence CCpS[^13C6, ^15N]LCCNP[^13C6, ^15N]ACTGC).
Each peptide was synthesized by American Peptide Company, Inc., and was stored desiccated at −20° C. A 1 mg/mL solution for each of the non-labeled peptides was prepared in 1 M tris (hydroxymethyl) aminomethane hydrochloride (Tris-HCl), pH 8 just prior to conducting the mouse intestinal loop fluid assay. A 500 ng/mL solution of ^13C, ^15N-labeled peptide 2 was prepared in 0.1% formic acid in water and was utilized to dilute the jejunum samples for post-assay LC-MS/MS analysis.
To collect the fluid, mice were fasted overnight with full access to water. They were then anesthetized with isofluorane for surgery and subjected to laparotomy in which the small intestine was exteriorized. Jejunum loops of 3 to 4 cm in length were made with sutures starting at 7 cm from the pyloric sphincter of the stomach. Once the loops were formed, they were injected with 200 μL of phosphate buffered saline (PBS) buffer (10 mM, pH 7.4). The abdominal wall and skin of the animals were then sutured, and the animals were allowed to recover for 30 minutes. Following recovery, the animals were sacrificed, the loops were then excised and the fluid inside was recovered and stored at −80° C. until use.
For each peptide, 25 μL of the 1 mg/mL peptide stock solution was added to 25 μL of 1 M Tris-HCl and 25 μL of 10× calf intestinal phosphatase (CIP) buffer containing 500 mM Tris-HCl, 1 M sodium chloride (NaCl), 0.1 mM magnesium chloride (MgCl2), pH 8. The reactions were initiated by adding 175 μL of the mouse jejunum loop fluid or 175 μL of the 1 M Tris-HCl pH8 buffer for the control reactions. The final concentration of each peptide was 100 μg/mL. The reactions were continuously mixed and maintained at 37° C. on a plate shaker. At 0, 2, 5, 10, 20, 30, 60, 90 and 120 minutes after adding the mouse intestinal loop fluid, a 25 μL aliquot was taken and added to 25 μL of 4° C. 12% trichloroacetic acid to stop the reaction. An additional 200 μL of 0.1% formic acid in water was added to these reactions for dilution purposes. These samples were then further diluted by taking 20 μL of each sample and adding it to 480 μL of 0.1% formic acid in water containing 500 ng/mL of the internal standard 13C, 15N -labeled peptide 2.
All samples were analyzed using an Applied Biosystems/MDS SCIEX API 4000 triple quadrupole mass spectrometer equipped with a high-performance liquid chromatography (HPLC) system. The mass spectrometer was operated in multiple reaction monitoring (MRM) mode, with resolution set to 1.2 Da.
The LC-MS/MS data were processed using Analyst version 1.4.2 software (Applied Biosystems/MDS SCIEX). The peak area ratio (ratio of analyte peak area to internal standard peak area) was used to calculate the percent remaining of each peptide.

[2] = molecular target: T1, Calf intestinal alkaline phosphatase (CIP) (Bos taurus, UniProt P19111); experiment: Alkaline phosphatase reaction (dephosphorylation of peptide substrates, LCMS); format: in vitro ADME
T1 construct: purchased New England BioLabs, Ipswich, Mass; M0290S
Description: (§1) For the alkaline phosphatase reactions, peptide stocks were prepared at 1 mg/mL in 0.1 M Tris-HCl pH 8, which were stored at −20° C. until assays were conducted. For the acid phosphatase reactions, peptide stocks were prepared at 1 mg/mL in 50 mM sodium phosphate pH 6, which was stored at −20° C. until assays were conducted.
Calf intestinal alkaline phosphatase (CIP) was obtained from New England BioLabs, Ipswich, Mass. Cat # M0290S. The CIP reaction solution was prepared by dilution with buffer (50 mM KCl, 10 mM Tris-HCl pH 8, 1 mM MgCl2, 50% glycerol) to 0.5 units/μL. The alkaline phosphatase reaction solutions were assembled in 20 μL quantities containing: • 2 μL 10× CIP buffer (1M NaCl, 500 mM Tris-HCl pH 8, 100 mM MgCl2) • 2 μL peptide stock (1 mg/mL) • 12 μL H2O • 4 μL alkaline phosphatase (0, 0.5 or 2 units)
The reaction solutions were mixed gently and incubated for 90 minutes at 37° C. These reaction solutions were stored at −20° C. until analysis. For analysis, the reaction solutions were diluted from 7.5 μL of CIP treated peptide to 50 μL with 0.1% formic acid in water to a final concentration of 10 μM.
Control reactions were assembled for enzyme activity containing 10 mM p-nitrophenylphosphate in place of peptide. After incubation, the reactions were diluted with 0.1 mL of 100 mM borate buffer pH 9 and read at the absorbance of 405 nm to monitor p-nitrophenol appearance.

[3] = molecular target: T2, human prostate acid phosphatase (HuPrAP) (Homo sapiens, UniProt P15309); experiment: Acid phosphatase reaction, human prostate acid phosphatase; format: in vitro ADME; conditions: Human prostatic acid phosphatase pH 5, 90 minutes at 37° C.
T2 construct: purchased MP Biochemicals, Solon, Ohio 153872
T2 sequence (P15309 33-386): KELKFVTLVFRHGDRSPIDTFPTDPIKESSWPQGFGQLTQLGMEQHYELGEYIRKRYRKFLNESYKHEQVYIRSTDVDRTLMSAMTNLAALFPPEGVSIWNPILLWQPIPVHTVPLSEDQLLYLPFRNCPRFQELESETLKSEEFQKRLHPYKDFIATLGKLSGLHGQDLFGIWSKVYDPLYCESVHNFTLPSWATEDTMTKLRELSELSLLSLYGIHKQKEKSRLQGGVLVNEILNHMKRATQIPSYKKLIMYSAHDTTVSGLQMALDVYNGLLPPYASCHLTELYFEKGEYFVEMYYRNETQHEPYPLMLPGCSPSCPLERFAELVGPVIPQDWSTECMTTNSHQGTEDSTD
Description: as §1
(§2) Potato acid phosphatase (PoAP) was obtained from Sigma, St. Louis, Miss. Cat #P1146 and human prostate acid phosphatase (HuPrAP) was obtained from MP Biochemicals, Solon, Ohio. Cat # 153872. The acid phosphatases were dissolved to provide a solution containing 0.5 units AP/μL using 50 mM sodium acetate pH 5, 0.2 mM MgCl2. The acid phosphatase reactions were assembled in 20 μL quantities containing: • 2 μL 10× acid phosphatase buffer (500 mM sodium acetate pH 5, 2 mM MgCl2) • 2 μL peptide stock (1 mg/mL) • 12 μL H2O • 4 μL acid phosphatase (0.5 or 2 units)
(§3) The reaction solutions were mixed gently and incubated for 90 minutes at 37° C. The reaction solutions were stored at −20° C. for later analysis. For analysis, 7.5 μL acid phosphatase reactions were diluted to 50 μL with 0.1% formic acid in water to a final concentration of 10 μM. The control reactions for enzyme activity were assembled and diluted to 10 mM p-nitrophenylphosphate in place of peptide. After incubation, the reactions were diluted with 0.1 mL of 100 mM borate buffer pH 9 and read at the absorbance of 405 nm to monitor p-nitrophenol appearance.

[4] = oral administration at therapeutic dose levels; cited from earlier work
[5] = system: Potato acid phosphatase (PoAP); experiment: Acid phosphatase reaction, potato acid phosphatase; format: in vitro ADME; conditions: Potato acid phosphatase pH 5, 90 minutes at 37° C.
Description: as §1, §2, §3

[6] = system: Calf intestinal alkaline phosphatase (CIP); experiment: Calf intestinal alkaline phosphatase (CIP) in CIP buffer (NaCl, Tris-HCl pH 8, MgCl2); conditions: 37° C., up to 90 minutes
[7] = system: human prostate acid phosphatase (HuPrAP); experiment: human prostate acid phosphatase (HuPrAP) in sodium acetate pH 5, MgCl2; conditions: 37° C., up to 90 minutes
[8] = mouse jejunum loop fluid (loops injected with 200 μL PBS, fluid recovered after 30 minutes); conditions: 37° C., up to 120 minutes
[9] = system: Potato acid phosphatase (PoAP); experiment: Potato acid phosphatase (PoAP) in sodium acetate pH 5, MgCl2; conditions: 37° C., up to 90 minutes
[10] = Alkaline phosphatase pH 8, 90 minutes at 37° C.

T1 sequence (P19111 20-506): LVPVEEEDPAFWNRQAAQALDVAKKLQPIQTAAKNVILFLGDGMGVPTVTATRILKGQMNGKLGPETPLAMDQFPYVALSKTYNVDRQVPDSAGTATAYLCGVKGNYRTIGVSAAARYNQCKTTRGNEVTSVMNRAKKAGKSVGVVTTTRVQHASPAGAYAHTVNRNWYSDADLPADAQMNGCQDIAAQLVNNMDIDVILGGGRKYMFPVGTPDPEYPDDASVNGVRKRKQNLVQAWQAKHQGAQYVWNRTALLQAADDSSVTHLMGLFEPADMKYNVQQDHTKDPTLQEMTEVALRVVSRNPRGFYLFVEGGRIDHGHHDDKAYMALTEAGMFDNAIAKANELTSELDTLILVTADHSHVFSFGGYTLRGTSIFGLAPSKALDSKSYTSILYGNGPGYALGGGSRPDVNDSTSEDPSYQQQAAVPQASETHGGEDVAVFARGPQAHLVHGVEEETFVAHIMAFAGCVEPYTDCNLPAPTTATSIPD

CC(C)C[C@@H]1NC(=O)[C@H](CO)NC(=O)[C@@H]2CSSC[C@@H]3NC(=O)[C@H](C)NC(=O)[C@@H]4CCCN4C(=O)[C@H](CC(N)=O)NC(=O)[C@H](CSSC[C@H](N)C(=O)N2)NC(=O)[C@H](CSSC[C@@H](C(=O)O)NC(=O)CNC(=O)[C@H]([C@@H](C)O)NC3=O)NC1=O [Dephospho-Peptide 2, CCSLCCNPACTGC] (H-CCSLCCNPACTGC-OH; disulfide 1-6, 2-10, 5-13 (inferred); N-terminus and C-terminus assumed)
metabolism in mouse jejunum fluid (words) [1]: degraded faster in mouse intestinal fluid than peptide 2
remaining at 2 h, 100 μg/mL [1]: 5.6%

CC(C)C[C@@H]1NC(=O)[C@H](COP(=O)(O)O)NC(=O)[C@@H]2CSSC[C@@H]3NC(=O)[C@H](C)NC(=O)[C@@H]4CCCN4C(=O)[C@H](CC(N)=O)NC(=O)[C@H](CSSC[C@H](N)C(=O)N2)NC(=O)[C@H](CSSC[C@@H](C(=O)O)NC(=O)CNC(=O)[C@H]([C@@H](C)O)NC3=O)NC1=O [Peptide 2, CCpSLCCNPACTGC] (H-CC[pS]LCCNPACTGC-OH; disulfide 1-6, 2-10, 5-13 (inferred); N-terminus and C-terminus assumed)
Dephospho (%) [2, 10]: 100%
remaining at 1.5 h, 0.1 mg/mL ([2]; calf, calf intestinal alkaline phosphatase (CIP), Alkaline phosphatase pH 8, 90 minutes at 37° C.): 0%
Dephospho (%) [3]: 4.1%
remaining at 1.5 h, 0.1 mg/mL ([3]; human prostate acid phosphatase (HuPrAP)): 95.9%
formation of metabolite dephospho-peptide 2 ([1]; mouse jejunum loop fluid at 37° C.): Formation of dephospho-peptide 2 was observed
remaining at 2 h, 100 μg/mL [1]: 5.3%

CC(C)C[C@@H]1NC(=O)[C@H](CCC(=O)O)NC(=O)[C@@H]2CSSC[C@@H]3NC(=O)[C@H](C)NC(=O)[C@@H]4CCCN4C(=O)[C@H](CC(N)=O)NC(=O)[C@H](CSSC[C@H](N)C(=O)N2)NC(=O)[C@H](CSSC[C@@H](C(=O)N[C@@H](Cc2ccc(O)cc2)C(=O)O)NC(=O)CNC(=O)[C@H]([C@@H](C)O)NC3=O)NC1=O [Peptide 3, CCELCCNPACTGCY] (H-CCELCCNPACTGCY-OH; disulfide 1-6, 2-10, 5-13 (inferred); N-terminus and C-terminus assumed)
Effect of CIP treatment on peptide (LC-MS) ([2]; with and without calf intestinal alkaline phosphatase, data not shown): not affected by CIP treatment
metabolism in mouse jejunum fluid (words) [1]: not detected after 90 minutes
metabolism in mouse jejunum fluid (words) ([1]; listed as peptide 3): degraded faster in mouse intestinal fluid than peptide 2

C[C@@H]1NC(=O)[C@@H]2CCCN2C(=O)[C@H](CC(N)=O)NC(=O)[C@@H]2CSSC[C@H](N)C(=O)N[C@H]3CSSC[C@H](NC1=O)C(=O)N[C@@H]([C@@H](C)O)C(=O)NCC(=O)N[C@H](C(=O)N[C@@H](Cc1ccc(O)cc1)C(=O)O)CSSC[C@H](NC(=O)[C@H](Cc1ccc(O)cc1)NC(=O)[C@H](CCC(=O)O)NC3=O)C(=O)N2 [linaclotide] (H-CCEYCCNPACTGCY-OH; disulfide 1-6, 2-10, 5-13)
levels seen systemically after oral administration [4]: no detectable levels

O=[N+]([O-])c1ccc(OP(=O)(O)O)cc1 [p-nitrophenylphosphate, reference compound]
Dephospho (%) [2, 10]: 100%
Remaining (%) [2, 10]: 0%
Dephospho (%) [5]: 100%
Remaining (%) [5]: 0%
Dephospho (%) [3]: 100%
Remaining (%) [3]: 0%

CCELCCNPACTGCY
not cleaved [6]: not affected by CIP treatment

CCpSLCCNPACTGC
fragment found [7]: Dephospho-Peptide 2
fragment found [8]: dephospho-peptide 2
fragment found [6]: Dephospho-Peptide 2

CCpSLCCNPACTGCY
fragment found [9]: Dephospho-Peptide 1
fragment found [7]: Dephospho-Peptide 1
fragment found [6]: Dephospho-Peptide 1
